Results as given in US20040224980A1, “Substituted 1H-quinolin-2-one compounds” (priority 2001, published 2004).

Test system: phenylquinone-induced writhing reactions
Assay: phenylquinone-induced writhing in mice
Format: in vivo
Conditions: male NMRI mice, 10 mg/kg i.v., phenylquinone i.p. 10 minutes after compound, writhing counted 5-20 minutes after phenylquinone
Procedure: The investigation into analgesic efficacy was performed by phenylquinone-induced writhing in mice (modified after: I. C. Hendershot, J. Forsaith, J. Pharmacol. Exp. There. 125, 237-240 (1959)). The corresponding literature description is hereby introduced as a reference and is deemed to be part of the disclosure.
Male NMRI mice weighing from 25 to 30 g were used for this purpose. Groups of 10 animals per substance dose received, 10 minutes after intravenous administration of the compounds tested, 0.3 ml/mouse of a 0.02% aqueous solution of phenylquinone (phenylbenzoquinone, Sigma, Deisenhofen; solution prepared with addition of 5% of ethanol and stored in a water bath at 45° C.) administered intraperitoneally. The animals were placed individually in observation cages. A push button counter was used to record the number of pain-induced stretching movements (writhing reactions=straightening of the torso with stretching of the rear extremities) for 5-20 minutes after phenylquinone administration. The control was provided by animals which received only physiological common salt solution.
The compounds were tested at the standard dosage of 10 mg/kg. Inhibition of the writhing reactions by a substance was calculated according to the following formula: [formula]
The in-depth investigation into analgesic efficacy was performed using phenylquinbne-induced writhing in mice, as described above.

Row | Structure (SMILES) | % inhibition of writhing reactions [%]
1 | COc1cccc(C2(O)CCC(NC(=O)Cc3c(O)c4ccc(Cl)cc4[nH]c3=O)CC2CN(C)C)c1 (centres unmarked) [Example 1, 2′-(7-Chloro-4-hydroxy-2-oxo-1,2-dihydroquinolin-3-yl)-N-[3″-(N,N-dimethylaminomethyl)-4″-hydroxy-4″-(m-methoxyphenyl)cyclohexyl]acetamide] | 60
2 | COc1cccc(C2(O)CCC(NC(=O)Cc3c(OC)c4ccc(Cl)cc4[nH]c3=O)CC2CN(C)C)c1 (centres unmarked) [Example 2, 2′-(7-Chloro-4-methoxy-2-oxo-1,2-dihydroquinolin-3-yl)-N-[3″-(N,N-dimethylaminomethyl)-4″-hydroxy-4″-(m-methoxyphenyl)cyclohexyl]acetamide] | 63
